Measurements: paper PMC10179589, “Membrane Permeability Is Required for the Vasodilatory Effect of Carbonic Anhydrase Inhibitors in Porcine Retinal Arteries” (International Journal of Molecular Sciences, 2023)
Where a name gives a salt, the structure may show the parent alone.

Legend:
hCA I = molecular target: T1, hCA I (Homo sapiens, UniProt P00915); test: stopped-flow CA inhibition assay; type: biochemical
T1 construct: gene CA1; cytosolic isoform
Description: stopped-flow CA inhibition assay on hCA I

hCA II = molecular target: T2, hCA II (Homo sapiens, UniProt P00918); test: stopped-flow CA inhibition assay; type: biochemical
T2 construct: gene CA2; cytosolic isoform
Description: stopped-flow CA inhibition assay on hCA II

T1 sequence (P00915 2-261): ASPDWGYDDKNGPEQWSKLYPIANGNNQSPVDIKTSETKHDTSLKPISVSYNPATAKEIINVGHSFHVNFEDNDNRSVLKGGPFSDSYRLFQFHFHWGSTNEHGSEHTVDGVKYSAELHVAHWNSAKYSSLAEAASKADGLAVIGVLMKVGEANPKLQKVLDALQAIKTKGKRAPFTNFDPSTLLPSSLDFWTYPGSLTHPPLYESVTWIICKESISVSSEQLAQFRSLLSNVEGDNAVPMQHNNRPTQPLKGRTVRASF

Row | Ki (hCA I) | Ki (hCA II) | Structure (SMILES)
1 | 0.707 µM | 0.265 µM | N=C(N)NC(=N)Nc1cccc(S(N)(=O)=O)c1 [compound 4, 3-(3-Carbamimidoylguanidino)benzenesulfonamide hydrochloride salt]
2 | 0.361 µM | 0.135 µM | N=C(N)NC(=N)Nc1ccc(S(N)(=O)=O)cc1 [compound 2, 4-(3-Carbamimidoylguanidino)benzenesulfonamide hydrochloride salt]
